Source: patent US4228288A, “Certain substituted 3,4,5,6-tetrahydropyridinium salt intermediates” (Eli Lilly and Company, priority 1979, dated 1980)
Where two headings read alike, the source gives them in different places.

How the values were obtained:
[1] = standard mouse writhing assay (inhibition of induced writhing); type: in vivo
Source text: (§1) The analgesic activity of a number of compounds provided by this invention has been determined in the standard rat-tail jerk assay and the mouse writhing assay. The results in the mouse writhing assay are presented as the effective dose in mg./kg. of the tested compound required to inhibit induced writhing in the test animals by fifty percent (ED50). Results are presented in Column II for both subcutaneous (S.C.) and oral (p.o.) administration of the test compound recited in Column I.

[2] = standard rat-tail jerk assay (delay of response to heat stimulus); type: in vivo; conditions: subcutaneous, heat sensation
Source text: as §1
Column III presents the effects of the claimed compounds on rats subjected to a heat sensation. The compounds recited in column I were administered subcutaneously to the test animals. The test results are reported as the minimum effective dose (MED) of compound in mg./kg. needed to delay response to the pain stimulus by one second compared to control animals.

[3] = oral, read-out: Mouse Writhing ED50 p.o. (dose required to inhibit induced writhing by fifty percent)
[4] = sc, subcutaneous, read-out: Mouse Writhing ED50 s.c. (dose required to inhibit induced writhing by fifty percent)

| Compound | ED50 [1, 3] | ED50 [1, 4] | Rat Tail Jerk MED 1 sec. (minimum effective dose to delay response to the pain stimulus by one second compared to control animals) [2] |
| --- | --- | --- | --- |
| CC1CC(C)(c2cccc(O)c2)C(C)CN1C (stereo not drawn) [1,2,4,5-Tetramethyl-4-(3-hydroxyphenyl)piperidine] | 9.2 mg/kg | 1.25 mg/kg | 1 mg/kg |
| COc1cccc(C2(C)CC(C)N(C)CC2C)c1 (stereo not drawn) [1,2,4,5-Tetramethyl-4-(3-methoxyphenyl)piperidine] | 16 mg/kg | 19 mg/kg | 10 mg/kg |
| CCCC1(c2cccc(OC)c2)CC(C)N(C)CC1C (stereo not drawn) [1,2,5-Trimethyl-4-n-propyl-4-(3-methoxyphenyl)-piperidine] | 11.5 mg/kg | 4 mg/kg | 2 mg/kg |
| CCCC1(c2cccc(O)c2)CC(C)N(C)CC1C (stereo not drawn) [1,2,5-trimethyl-4-n-propyl-4-(3-hydroxyphenyl)piperidine] | 16 mg/kg | 29 mg/kg | 20 mg/kg |
| CCOC(=O)C1(c2ccccc2)CCN(C)CC1 [Meperidine, meperidine, reference compound] | 21 mg/kg | 2.8 mg/kg | 3.0 mg/kg |
